Measurements: publication PMC10907298 (Nature chemical biology, 2023)
“And” between values parts separate entries of the source, which are not always exact repeats. Identical values can stand only once.

Tests used:
human STING (WT) = human STING (WT) (Homo sapiens, UniProt Q86WV6); assay: ISRE reporter assay with STING co-transfection in HEK293T cells; format: cell-based; details: hSTING, Figure S1f
[1] = target: hSTING(1–153)–mSTING(153–378) chimera (Homo sapiens, UniProt Q86WV6, A215V/A300E/A302V/A313V/A318T/A350V/D237N/D297E/D320G/E174G/E362R/E369D/G230I/G344N/H185L/H232R/I244V/K224M/K347M/K370Q/L189M/L202F/L222R/L247I/L333I/L346P/M214V/M357L/Q196R/Q276K/Q306R/R191S/R253P/S275A/S321N/S345A/S353P/T181M/T229N/T256V/T354P/T356V/V194G/V258I/V343M/V351A/Y182F/Y186H/Y274D); assay: as above; format: cell-based, human/mouse; details: for ISRE reporter activity, mean: h(1-153)/m(153-378)STING, Figure S1f
hSTING(1–153)–mSTING(153–378) chimera, sequence (Q86WV6 with tags, fused parts or gaps with the stated changes): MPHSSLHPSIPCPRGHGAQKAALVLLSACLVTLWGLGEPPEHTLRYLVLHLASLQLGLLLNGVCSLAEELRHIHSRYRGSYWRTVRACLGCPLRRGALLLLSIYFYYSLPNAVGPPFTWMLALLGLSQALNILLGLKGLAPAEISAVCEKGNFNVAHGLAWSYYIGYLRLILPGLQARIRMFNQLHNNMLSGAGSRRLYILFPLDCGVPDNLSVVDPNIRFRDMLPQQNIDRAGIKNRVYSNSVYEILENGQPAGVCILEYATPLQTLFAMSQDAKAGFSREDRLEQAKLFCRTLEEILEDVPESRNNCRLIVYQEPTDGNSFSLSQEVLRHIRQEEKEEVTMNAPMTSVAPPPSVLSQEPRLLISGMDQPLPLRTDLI

STING(TMEM173) = STING(TMEM173) (Homo sapiens, UniProt Q86WV6, G230A/R293Q/R71H); assay: photoaffinity labeling and competition chemoproteomics in THP-1 cells; format: binding
STING(TMEM173), sequence (Q86WV6 whole entry R71H/G230A/R293Q): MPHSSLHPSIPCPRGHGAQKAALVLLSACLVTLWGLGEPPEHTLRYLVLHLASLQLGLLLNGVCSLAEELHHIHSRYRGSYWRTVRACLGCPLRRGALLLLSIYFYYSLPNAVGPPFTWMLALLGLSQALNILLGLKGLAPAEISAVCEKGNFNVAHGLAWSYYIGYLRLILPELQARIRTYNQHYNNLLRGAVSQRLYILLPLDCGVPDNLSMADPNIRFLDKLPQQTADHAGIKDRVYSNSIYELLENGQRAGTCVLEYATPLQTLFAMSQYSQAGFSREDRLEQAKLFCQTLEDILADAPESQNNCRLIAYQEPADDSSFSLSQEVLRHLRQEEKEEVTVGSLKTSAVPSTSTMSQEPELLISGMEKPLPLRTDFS

human STING = human STING (Homo sapiens, UniProt Q86WV6, G230A/R293Q/R71H); assay: THP1-Dual ISRE-Luc reporter gene assay (primary screen and dose response); details: for THP1-Dual reporter activity: single replicates (n=2); for AC50: THP1-Dual ISRE-Luc Assay
human STING, sequence (Q86WV6 whole entry R71H/G230A/R293Q, the tested form may be a part): as the sequence (Q86WV6 whole entry R71H/G230A/R293Q) above

[2] = target: TXNDC12 Thioredoxin domain-containing protein 12 (Homo sapiens, UniProt O95881); assay: photoaffinity labeling and competition chemoproteomics in THP-1 cells; format: binding
TXNDC12 Thioredoxin domain-containing protein 12, sequence (O95881 27-172): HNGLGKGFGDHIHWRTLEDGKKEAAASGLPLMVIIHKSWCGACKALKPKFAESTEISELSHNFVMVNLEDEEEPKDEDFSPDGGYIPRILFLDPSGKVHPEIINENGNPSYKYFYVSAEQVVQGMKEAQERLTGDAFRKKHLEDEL

[3] = target: SLC25A13 Calcium-binding mitochondrial carrier protein Aralar2 (Homo sapiens, UniProt Q9UJS0); assay: as above
SLC25A13 Calcium-binding mitochondrial carrier protein Aralar2, sequence (Q9UJS0 whole entry): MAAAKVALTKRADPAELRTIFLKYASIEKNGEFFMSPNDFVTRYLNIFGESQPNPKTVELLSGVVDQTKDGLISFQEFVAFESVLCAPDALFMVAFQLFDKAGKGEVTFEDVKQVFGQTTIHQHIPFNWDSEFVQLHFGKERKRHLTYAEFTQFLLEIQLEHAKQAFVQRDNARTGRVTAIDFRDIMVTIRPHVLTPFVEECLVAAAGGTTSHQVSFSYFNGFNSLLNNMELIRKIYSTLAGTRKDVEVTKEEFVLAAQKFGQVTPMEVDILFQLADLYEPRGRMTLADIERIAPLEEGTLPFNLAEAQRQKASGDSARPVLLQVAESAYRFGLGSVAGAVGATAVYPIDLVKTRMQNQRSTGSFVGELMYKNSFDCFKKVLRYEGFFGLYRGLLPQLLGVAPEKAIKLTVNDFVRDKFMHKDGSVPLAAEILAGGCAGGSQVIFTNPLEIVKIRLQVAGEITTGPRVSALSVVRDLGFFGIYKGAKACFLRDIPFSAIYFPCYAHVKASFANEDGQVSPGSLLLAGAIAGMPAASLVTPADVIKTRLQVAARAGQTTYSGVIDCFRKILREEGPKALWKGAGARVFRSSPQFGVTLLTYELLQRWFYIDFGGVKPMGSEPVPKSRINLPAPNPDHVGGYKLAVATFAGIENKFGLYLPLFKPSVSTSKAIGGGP

RABL6 Rab-like protein 6 = RABL6 Rab-like protein 6 (Homo sapiens, UniProt Q3YEC7); assay: as above; format: binding
RABL6 Rab-like protein 6, sequence (Q3YEC7 whole entry): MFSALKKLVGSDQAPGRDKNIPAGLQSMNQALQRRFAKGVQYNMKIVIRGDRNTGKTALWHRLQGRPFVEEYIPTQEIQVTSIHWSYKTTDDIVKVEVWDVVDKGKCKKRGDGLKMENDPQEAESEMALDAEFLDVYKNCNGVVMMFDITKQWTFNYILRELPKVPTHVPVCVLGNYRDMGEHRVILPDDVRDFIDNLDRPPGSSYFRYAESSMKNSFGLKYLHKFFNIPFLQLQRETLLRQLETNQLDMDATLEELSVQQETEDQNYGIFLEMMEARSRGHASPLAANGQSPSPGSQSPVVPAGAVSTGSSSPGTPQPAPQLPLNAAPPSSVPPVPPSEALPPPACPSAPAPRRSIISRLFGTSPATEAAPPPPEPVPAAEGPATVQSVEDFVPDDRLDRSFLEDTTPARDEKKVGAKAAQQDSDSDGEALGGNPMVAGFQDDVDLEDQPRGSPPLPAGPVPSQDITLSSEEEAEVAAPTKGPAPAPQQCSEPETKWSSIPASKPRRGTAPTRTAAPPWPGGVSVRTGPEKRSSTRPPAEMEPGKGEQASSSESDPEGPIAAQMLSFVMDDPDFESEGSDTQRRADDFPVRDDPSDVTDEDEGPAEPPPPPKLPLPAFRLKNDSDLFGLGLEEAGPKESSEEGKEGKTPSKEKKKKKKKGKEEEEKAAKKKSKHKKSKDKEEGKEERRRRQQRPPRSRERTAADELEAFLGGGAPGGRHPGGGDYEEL

SYNE2 Nesprin-2 = SYNE2 Nesprin-2 (Homo sapiens, UniProt Q8WXH0); assay: as above; format: binding
BMDM, WT mSTING = assay: IP10 induction in bone marrow-derived macrophages; format: cell-based, mouse; details: 50μM, n=1
BMDM, mSTING Indel/Indel = assay: IP10 induction in bone marrow-derived macrophages; format: cell-based, mouse; details: 50μM, n=1
[4] = system: BMDM, human STING knock-in; assay: IP10 induction in bone marrow-derived macrophages; format: cell-based, mouse; details: 50μM, n=1

human STING (WT), sequence (Q86WV6 whole entry): as the sequence (Q86WV6 whole entry R71H/G230A/R293Q) above, with H71R, A230G, Q293R counted along it

**Q.** Which “ISRE reporter activity, mean” value (human STING (WT); Log[μM] 0) does the source give for `Cc1ccc2c(=O)c3cccc(CC(=O)O)c3oc2c1C` [DMXAA, 5,6-dimethylxanthenone-4-acetic acid, reference compound] here?
**A.** The value was 1.3.

**Q.** And the “ISRE reporter activity, mean” value (human STING (WT); Log[μM] 0.3)?
**A.** The value was 1.4.

**Q.** What about the “ISRE reporter activity, mean” value (human STING (WT); Log[μM] 0.6) of the same compound?
**A.** The value was 1.2.

**Q.** What about the “ISRE reporter activity, mean” value (human STING (WT); Log[μM] 0.9) of the same compound?
**A.** Its value is 1.3.

**Q.** What about the “ISRE reporter activity, mean” value (human STING (WT); Log[μM] 1.2) of the same compound?
**A.** Its value is 1.

**Q.** What about the “ISRE reporter activity, mean” value (human STING (WT); Log[μM] 1.5) of the same compound?
**A.** The value was 1.6.

**Q.** And the “ISRE reporter activity, mean” value (human STING (WT); Log[μM] 1.8)?
**A.** The value was 1.2.

**Q.** And the “ISRE reporter activity, mean” value (human STING (WT); Log[μM] 2.1)?
**A.** Its value is 1.4.

**Q.** What about the “ISRE reporter activity, mean” value (human STING (WT); Log[μM] 2.4) of the same compound?
**A.** The value was 1.5.

**Q.** And the “ISRE reporter activity, mean” value (human STING (WT); Log[μM] 2.7)?
**A.** Its value is 1.9.

**Q.** What about the “ISRE reporter activity, mean” value ([1]; Log[μM] 0) of the same compound?
**A.** Its value is 0.7.

**Q.** What about the “ISRE reporter activity, mean” value ([1]; Log[μM] 0.3) of the same compound?
**A.** The value was 0.7.

**Q.** And the “ISRE reporter activity, mean” value ([1]; Log[μM] 0.6)?
**A.** Its value is 0.7.

**Q.** What about the “ISRE reporter activity, mean” value ([1]; Log[μM] 0.9) of the same compound?
**A.** Its value is 0.9.

**Q.** What about the “ISRE reporter activity, mean” value ([1]; Log[μM] 1.2) of the same compound?
**A.** The value was 9.4.

**Q.** What about the “ISRE reporter activity, mean” value ([1]; Log[μM] 1.5) of the same compound?
**A.** Its value is 82.5.

**Q.** And the “ISRE reporter activity, mean” value ([1]; Log[μM] 1.8)?
**A.** The value was 101.1.

**Q.** What about the “ISRE reporter activity, mean” value ([1]; Log[μM] 2.1) of the same compound?
**A.** The value was 106.7.

**Q.** What about the “ISRE reporter activity, mean” value ([1]; Log[μM] 2.4) of the same compound?
**A.** Its value is 109.5.

**Q.** And the “STING activation in words” value ([1]; hSTING TMD–mSTING LBD chimera)?
**A.** The value was “responded fully”.

**Q.** Which “competition of NVS-STG4 labeling in words” value (STING(TMEM173); 20 μM competitor, 1 μM NVS-STG4) does the source give for `CNc1ccccc1CS(=O)(=O)NC(=O)c1ccc(NCc2ccc(C3(C(C)(C)C)OCC(C)(C)CO3)cc2)c(OC)c1` [NVS-STG3] here?
**A.** Its value is “competed”.

**Q.** And the THP1-Dual reporter activity (human STING; 97.7 nM)?
**A.** The THP1-Dual reporter activity was -1.082 and 21.604.

**Q.** What about the THP1-Dual reporter activity (human STING; 195 nM) of the same compound?
**A.** The THP1-Dual reporter activity was -3.144 and -12.05.

**Q.** What about the THP1-Dual reporter activity (human STING; 391 nM) of the same compound?
**A.** The THP1-Dual reporter activity was -15.339 and 25.944.

**Q.** And the THP1-Dual reporter activity (human STING; 781 nM)?
**A.** The THP1-Dual reporter activity was 62.36 and 63.63.

**Q.** What about the THP1-Dual reporter activity (human STING; 1563 nM) of the same compound?
**A.** Its THP1-Dual reporter activity is 1502.2 and 1735.82.

**Q.** What about the THP1-Dual reporter activity (human STING; 3125 nM) of the same compound?
**A.** Its THP1-Dual reporter activity is 6139.8 and 5609.9.

**Q.** And the THP1-Dual reporter activity (human STING; 6250 nM)?
**A.** The THP1-Dual reporter activity was 8825.5 and 7956.

**Q.** And the THP1-Dual reporter activity (human STING; 12500 nM)?
**A.** The THP1-Dual reporter activity was 8733.31 and 7877.19.

**Q.** And the AC50 (human STING)?
**A.** Its AC50 is 2.7 µM.

**Q.** What does the source list for `C#CCCC1(CCC(=O)NCCCS(=O)(=O)NC(=O)c2ccc(NCc3ccc(C4(C(C)(C)C)OCC(C)(C)CO4)cc3)c(OC)c2)N=N1` [NVS-STG4]?
**A.** enrichment of STING(TMEM173) over no probe control (STING(TMEM173); 1 μM probe, pull-down): over 2 fold; Abundance Ratio (log2): (DMSO) / (NJC652) (STING(TMEM173); TMEM173): -1.82; Abundance Ratio (log2): (DMSO) / (NJC652) [2]: -0.18; Abundance Ratio (log2): (DMSO) / (NJC652) [3]: -0.21; Abundance Ratio (log2): (DMSO) / (NJC652) (RABL6 Rab-like protein 6): 0.01; Abundance Ratio (log2): (DMSO) / (NJC652) (SYNE2 Nesprin-2): 0.26; THP1-Dual reporter activity (human STING; 97.7 nM): -53.887 and -41.218; THP1-Dual reporter activity (human STING; 195 nM): -52.59 and -42.841; THP1-Dual reporter activity (human STING; 391 nM): -38.43 and -29.964; THP1-Dual reporter activity (human STING; 781 nM): -39.736 and -25.431; THP1-Dual reporter activity (human STING; 1563 nM): -32.277 and -48.463; THP1-Dual reporter activity (human STING; 3125 nM): -20.873 and -28.245; THP1-Dual reporter activity (human STING; 6250 nM): 1623.13 and 1111.27; THP1-Dual reporter activity (human STING; 12500 nM): 4114.59 and 3953.84; THP1-Dual reporter activity (human STING; 25000 nM): 2243.38 and 2653.78; AC50 (human STING): 6.9 µM

**Q.** `Nc1nc2c(ncn2[C@@H]2O[C@@H]3COP(=O)(O)O[C@H]4[C@@H](O)[C@H](n5cnc6c(N)ncnc65)O[C@@H]4COP(=O)(O)O[C@@H]2[C@@H]3O)c(=O)[nH]1` [cGAMP, 2’,3’-cGMP-AMP, reference compound] was tested. Which IP10 (BMDM, WT mSTING) did it give?
**A.** Its IP10 is 3440.25 pg/mL.

**Q.** What about the IP10 (BMDM, mSTING Indel/Indel) of the same compound?
**A.** The IP10 was 0 pg/mL.

**Q.** And the IP10 ([4]; BMDM hSTING+/+)?
**A.** Its IP10 is 2945 pg/mL.

**Q.** And the IP10 ([4]; BMDM hSTING+/indel)?
**A.** The IP10 was 1331.5 pg/mL.
